Results reported in US20210077592A1, “COMPOSITION TO PREVENT INTESTINAL DAMAGE” (FUSION FARM S.R.L. SEMPLIFICATA, priority 2017, published 2021).

Assays:
Type in all cases: cell-based
[1] = test system: Occludin and Zonula Occludens in Caco-2 cells; test: Fluorescence immunolabeling of Occludin and Zonula Occludens in Caco-2 cells after damage induction; conditions: pretreatment 60 h without glutamine, then 60 mM ethanol 4 h
Method: As it can be seen by FIG. 1, the damage induced an increase in permeability. The same cells without damage induction (NC) and with damage induction (PC), as indicated above, were further evaluated by fluorescence immunolabeling of Occludina and Zonula Occludens (proteins present in the intestinal membrane intracellular junctions).
(§1) According to the experimental protocol, to evaluate the efficacy of the composition of the invention in damage prevention, sodium butyrate (2 mM concentration) and lactoferrin (400 μg/ml concentration), either alone or in combination, were applied on Caco-2 cells during stress induced by absence of glutamine, increasing the time of said deprivation, with respect to the conditions tested during the development of the model, and therefore of stress induction, to 60 hours, to make more evident differences in cells behavior in the different treatment situations. At the end of 60 hours, the products were removed, and damage was induced for 4 h with 60 mM ethanol. The parameters were evaluated at the end.
To confirm the observed behavior, an evaluation using fluorescence immunolabeling of Occludin and Zonula Occludens was also performed.

Caco-2 cells [2] = test: Electron Microscopy (SEM) of microvilli of Caco-2 cells after damage induction; conditions: pretreatment 60 h without glutamine, then 60 mM ethanol 4 h, 750x-10000x
Method: The same cells without damage induction (NC) and with damage induction (PC), as indicated above, were finally evaluated by Electron Microscopy (SEM) at different magnifications.
as §1
The same cells were finally evaluated also by Electron Microscopy SEM, at various magnifications.

Caco-2 cells [3] = test: Lucifer Yellow (LY) assay of paracellular permeability in Caco-2 intestinal damage model
Method: A protocol was developed based on Caco-2 cell inserts model (CACOREADY™ cells, lot no. 24 676 101716 and no. 24 680 111416, Readycell manufacturer) consisting in two steps:
1. Induction of epithelial damage (40 h incubation in glutamine free medium followed by stress induced by 60 mM ethanol for 4 h)
2. Evaluation of the single products first, and then applied in combination during stress induced by the absence of glutamine (60 h), and with subsequent stress induced by ethanol, to evaluate the efficacy in preventing damage. […]
Cells without damage induction (NC=without damage) and with damage induction (PC) were evaluated with the Lucifer Yellow (LY) assay, which verifies the integrity of the cellular junctions in presence of the test substance. […]
as §1, with “At the end of 60 hours, the products were removed, and damage was induced for 4 h with 60 mM ethanol.” left out, “end. […]” for “end.”

## CCCC(=O)[O-].[Na+] [sodium butyrate, reference compound]
[1]
  fluorescence intensity / expression of tight junction proteins (Occludin, Zonula Occludens), result in words: lower expression of the tight junctions' proteins
Caco-2 cells [2]
  effect on microvilli / villous atrophy by SEM, result in words: did not have any effect in combating the partial villous atrophy
Caco-2 cells [3]; 2 mM sodium butyrate alone during 60 h glutamine deprivation, then 60 mM ethanol 4 h
  increase in LY flux (permeability): over 51%
Caco-2 cells [3]; treatment at the same time as damage induction
  permeability (LY), result in words: significant increase in permeability
